Reference: BigSolDB 2.1

NC(=O)c1cccnc1
solubility (mole fraction)
Conditions	in acetone	in ethanol	in ethyl acetate	in isobutanol	in isopropanol	in methanol	in methyl acetate	in n-butanol	in n-butyl acetate	in n-propanol
283.15 K	0.0116	0.0263	0.00797	0.0222	0.0187	0.0541	0.00929	0.0235	0.00936	0.0219
288.15 K	0.0134	0.032	0.00871	0.0248	0.023	0.0643	0.0101	0.0274	0.00955	0.0266
293.15 K	0.0164	0.0374	0.01	0.0292	0.0281	0.0748	0.0117	0.0315	0.01	0.0321
298.15 K	0.0191	0.0444	0.0112	0.0345	0.0328	0.0876	0.0135	0.0362	0.0107	0.0378
303.15 K	0.0234	0.0537	0.0129	0.0392	0.0396	0.102	0.0156	0.0416	0.0114	0.045
308.15 K	0.0286	0.0638	0.0145	0.0456	0.048	0.121	0.0179	0.0482	0.0124	0.0542
313.15 K	0.0342	0.0766	0.0163	0.0544	0.0573	0.141	0.0209	0.0566	0.0135	0.0647
318.15 K	0.0392	0.0912	0.0182	0.0637	0.0673	0.166	0.0235	0.0664	0.0153	0.0766
323.15 K	0.0472	0.11	0.0213	0.0754	0.0801	0.192	0.0272	0.0774	0.0181	0.0924
